Assay [1] relates to SB.msgc-1. Kind of assay: area under the dose-response curve of % viability (trapezoidal, 11 doses) (% viability x log10 concentration); higher = less cytotoxic. As to conditions: SB.msgc-1 (sporadic gastric cancer). Summed up: (§1)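 Viability, normalised to DMSO, is listed either at the highest concentration or as trapezoidal area under the curve. It was measured in patient-derived gastric cancer cells, hereditary or sporadic, exposed for 48 h to 11 threefold-diluted compound concentrations and then assayed with CellTiter-Glo luminescence.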

Assay [2] concerns SB.mhdgc-1. The assay is described as above. Conditions: SB.mhdgc-1 (hereditary c.1380delA CDH1 gastric cancer). Summed up:
as §1

Assay [3] relates to SB.msgc-1. Nature of the assay: viability at highest tested concentration (MAXR) relative to DMSO; higher = less cytotoxic. As to conditions: SB.msgc-1 (sporadic gastric cancer). Summed up:
as §1

Assay [4] deals with SB.mhdgc-1. The assay is described as above. As to conditions: SB.mhdgc-1 (hereditary c.1380delA CDH1 gastric cancer). Summed up:
as §1

Where a name gives a salt, the structure may show the parent alone.

As a reminder, the viability is a read-out of living cells in per cent, often relative to untreated cells. Consider `C[C@]\12CCC(=O)\C=C1[C@@H]3C[C@@H]3[C@@H]4[C@@H]2CC[C@@]5(C)[C@H]4[C@@H]6C[C@@H]6[C@@]57CCC(=O)O7` [Drospirenone] (top concentration 46.0829 µM), for which the “area under the dose-response curve” value in assay [1] came out at 550; in assay [2], 524. Besides, the viability in assay [3] is 80.6%; in assay [4], 120%.
As to `Cc1cc(Cl)ccc1OCCCC(=O)NO` [Droxinostat] (top concentration 46.0829 µM), the “area under the dose-response curve” value in assay [1] is 411; in assay [2] it was 375. The viability in assay [3] turned out to be 15.1%; in assay [4] it was 6.87%.
For `CNCC[C@H](Oc1cccc2ccccc12)c1cccs1` [Duloxetine hydrochloride] (top concentration 46.0829 µM), in that order: 435, 416, 21.1% and 6.33%.
The like results for `C[C@]12CC[C@H]3[C@@H](CC[C@H]4NC(=O)\C=C/[C@]34C)[C@@H]1CC[C@@H]2C(=O)NC5=CC(=CC=C5C(F)(F)F)C(F)(F)F` [Dutasteride] (top concentration 46.0829 µM) were, in that order, 463, 561, 31.9% and 36.3%.
As to `Cn1c(=O)c2c(ncn2CC(O)CO)n(C)c1=O` (stereo not drawn) [Dyphylline] (top concentration 46.0829 µM), the figures for the “area under the dose-response curve” value in assay [1] and in assay [2] were 537 and 543, respectively. Moreover, the viability in assay [3] was 103%; in assay [4] it was 117%.
Turning to `CCOc1cc2c(c(F)c1OCC)C(=N)N(CC(=O)c1cc(N3CCOCC3)c(OC)c(C(C)(C)C)c1)C2` [E5555] (top concentration 46.0829 µM), the “area under the dose-response curve” value in assay [1] is 471; in assay [2], 401. The values for the viability in assay [3] and in assay [4] were 5.86% and 2.89%, respectively.
As to `COc1ccc([S+](=O)([O-])Nc2cccnc2Nc2ccc(O)cc2)cc1` [E-7010] (top concentration 46.0829 µM), the results for the “area under the dose-response curve” value in assay [1] and in assay [2] were 378 and 474, respectively. Also, the viability in assay [3] worked out at 40.2%; in assay [4], 47%.
Turning to `CCOC(=O)C/1=C(O)/C(=O)N(CC2=CC=CC=C2)C1` [EBPC] (top concentration 46.0829 µM), the “area under the dose-response curve” value in assay [1] was 581; in assay [2], 534. The viability came out at 104% in assay [3] and 93.3% in assay [4].
Consider `Cc1ccccc1C(=O)c1ccc(Nc2ccc(Br)cc2N)cc1Cl` [EO-1428] (top concentration 46.0829 µM), for which the entries for the “area under the dose-response curve” value in assay [1] and in assay [2] were 528 and 525, respectively. Further, the viability in assay [3] is 70.2%; in assay [4], 53.6%.
For `NC(=O)C1CCCc2c1[nH]c1ccc(Cl)cc21` (stereo not drawn) [EX-527] (top concentration 46.0829 µM), in that order: 489, 521, 69.3% and 70.6%.
For `C[C@H]([C@H](O)CCC(C)(C)O)[C@H]1CC[C@@]2(O)C/3=C/C(=O)[C@@H]4C[C@@H](O)[C@@H](O)C[C@]4(C)[C@H]3CC[C@]12C` [Ecdysone] (top concentration 46.0829 µM), in that order: 561, 582, 112% and 142%.
`CS[C@H]1SC[C@@H]2C(=O)N(C)[C@H](C(C)C)C(=O)OC[C@H](NC(=O)c3cnc4ccccc4n3)C(=O)N[C@H](C)C(=O)N(C)[C@H]1C(=O)N(C)[C@H](C(C)C)C(=O)OC[C@H](NC(=O)c1cnc3ccccc3n1)C(=O)N[C@H](C)C(=O)N2C` [Echinomycin] (top concentration 46.0829 µM): the “area under the dose-response curve” value came to 232 in assay [1] and 313 in assay [2]. Moreover, the values for the viability in assay [3] and in assay [4] were 34.8% and 52.7%, respectively.
Turning to `Clc1ccc(COC(Cn2ccnc2)c2ccc(Cl)cc2Cl)cc1` (stereo not drawn) [Econazole nitrate] (top concentration 46.0829 µM), the “area under the dose-response curve” value in assay [1] was 514; in assay [2], 552. Moreover, the viability in assay [3] was found to be 64.3%; in assay [4], 77.1%.
For `C\C1=N\N(C(=O)C1)C2=CC=CC=C2` [Edaravone] (top concentration 46.0829 µM), in that order: 530, 497, 117% and 121%.
The like results for `CC1(C)C(N(O)C(=O)Nc2ccc(Cl)cc2)N(c2ccc(Cl)cc2)C(=O)N1CC(=O)N/N=C/C=C/c1ccc([N+](=O)[O-])o1` (stereo not drawn) [Eeyarestatin I] (top concentration 46.0829 µM) were, in that order, 459, 506, 1.63% and 1.97%.
For the compound `O=C1Nc2ccc(Cl)cc2C(C#CC2CC2)(C(F)(F)F)O1` (stereo not drawn) [Efavirenz] (top concentration 46.0829 µM), the “area under the dose-response curve” value in assay [1] turned out to be 331; in assay [2], 435. In addition, the viability in assay [3] is 40.6%; in assay [4], 52%.
Take `NCCCC(N)(C(=O)O)C(F)F` (stereo not drawn) [Eflornithine Hydrochloride] (top concentration 46.0829 µM): the entries for the “area under the dose-response curve” value in assay [1] and in assay [2] were 528 and 485, respectively. Also, the viability was 52.8% in assay [3] and 54.1% in assay [4].
With `COc1cc2c(cc1OC)CN(CCc1ccc(NC(=O)c3cccc4c(=O)c5cccc(OC)c5[nH]c34)cc1)CC2` [Elacridar] (top concentration 46.0829 µM), the entries for the “area under the dose-response curve” value in assay [1] and in assay [2] were 480 and 404, respectively. Besides, the viability in assay [3] was found to be 55.4%; in assay [4], 35.1%.
In the case of `CCC(=C/[C@H](C)C/C=C/C(C)=C/[C@@H](C)C(=O)[C@@H](C)[C@H](O)[C@@H](C)C/C(C)=C/C(=O)O)/C=C/[C@@H]1OC(=O)C=C[C@@H]1C` [Elactocin] (top concentration 1.84332 µM), the “area under the dose-response curve” value was determined as 583 in assay [1] and 451 in assay [2]. The viability amounted to 49.9% in assay [3] and 18% in assay [4].
For `OC(CN1CCC(Cc2ccc(F)cc2)CC1)c1ccc(Cl)cc1` (stereo not drawn) [Eliprodil] (top concentration 46.0829 µM), in that order: 505, 431, 81.8% and 37.7%.
In the case of `O=c1oc2c(O)c(O)cc3c(=O)oc4c(O)c(O)cc1c4c23` [Ellagic acid] (top concentration 46.0829 µM), the entries for the “area under the dose-response curve” value in assay [1] and in assay [2] were 565 and 533, respectively. Further, the viability in assay [3] was determined as 80.7%; in assay [4], 67.8%.
`CC1=NN(c2ccc(C)c(C)c2)C(=O)/C1=N/Nc1cccc(-c2cccc(C(=O)O)c2)c1O` [Eltrombopag olamine] (top concentration 46.0829 µM): the entries for the “area under the dose-response curve” value in assay [1] and in assay [2] were 509 and 535, respectively. In addition, the viability in assay [3] was determined as 35.8%; in assay [4], 71.2%.

Values taken from the supplement of paper PMC5412046.
